Source: US10287305B2, “Substituted piperidine compound and use thereof” (Takeda Pharmaceutical Company Limited, priority 2016, dated 2019)

Molecular target: human orexin type 2 receptor (hOX2R) (Homo sapiens (Human), UniProt O43614)
Assay: Measurement of orexin type 2 receptor agonist activity (Experimental Example 2-1, FLIPR TETRA, intracellular Ca2+)
Format: cell-based
Conditions: CHO dhfr- cells expressing hOX2R; for Emax: read-out: Emax (%); for Emax at 30 µM: value at 30 uM concentration, orexin B as full agonist = 100%
[1] = agonist activity, 10 nM human orexin B = 100%

Sequence of human orexin type 2 receptor (hOX2R) (O43614 whole entry): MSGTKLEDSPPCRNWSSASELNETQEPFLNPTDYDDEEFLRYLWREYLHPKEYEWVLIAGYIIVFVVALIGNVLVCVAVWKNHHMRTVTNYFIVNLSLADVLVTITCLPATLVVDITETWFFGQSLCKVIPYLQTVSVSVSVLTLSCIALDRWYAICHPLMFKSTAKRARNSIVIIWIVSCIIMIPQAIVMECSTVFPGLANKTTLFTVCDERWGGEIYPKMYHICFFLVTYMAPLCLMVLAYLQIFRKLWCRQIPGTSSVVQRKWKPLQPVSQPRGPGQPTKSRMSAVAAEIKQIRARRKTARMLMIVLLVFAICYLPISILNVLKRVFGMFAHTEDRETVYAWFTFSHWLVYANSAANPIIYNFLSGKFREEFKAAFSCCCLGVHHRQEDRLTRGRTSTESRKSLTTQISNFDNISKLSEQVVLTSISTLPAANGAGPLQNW

SMILES | EC50 (FLIPR TETRA, Fluo-4AM) [nM] | Emax (FLIPR TETRA, Fluo-4AM) [%] | EC50 [1] [nM] | Emax at 30 µM [%]
CC(=O)N1CCC[C@H](NS(C)(=O)=O)[C@@H]1CO[C@H]1CC[C@@H](c2cc(F)cc(F)c2F)CC1 [Example 243, N-((2R,3S)-1-acetyl-2-(((cis-4-(2,3,5-trifluorophenyl)cyclohexyl)oxy)methyl)piperidin-3-yl)methanesulfonamide] | 17 | 97 |  | 
CS(=O)(=O)N[C@H]1CCCN[C@H]1CO[C@H]1CC[C@@H](c2c(F)ccc(F)c2F)CC1 [Example 21, N-((2R,3S)-2-(((cis-4-(2,3,6-trifluorophenyl)cyclohexyl)oxy)methyl)piperidin-3-yl)methanesulfonamide] |  |  | 200 | 108
CC(C)[C@H]1CC[C@@H](OC[C@H]2[C@@H](NS(C)(=O)=O)CCCN2C(=O)CCc2ccccc2)CC1 (relative stereo) [Example 54, N-(cis-2-(((cis-4-isopropylcyclohexyl)oxy)methyl)-1-(3-phenylpropanoyl)piperidin-3-yl)methanesulfonamide] |  |  | 4100 | 88
CS(=O)(=O)N[C@H]1CCCN(C(=O)C2CC2)[C@H]1CO[C@H]1CC[C@@H](c2cc(F)cc(F)c2F)CC1 [Example 245, N-((2R,3S)-1-(cyclopropylcarbonyl)-2-(((cis-4-(2,3,5-trifluorophenyl)cyclohexyl)oxy)methyl)piperidin-3-yl)methanesulfonamide] | 2 | 97 |  | 
CC(=O)N1CCC[C@H](NS(C)(=O)=O)[C@@H]1CO[C@H]1CC[C@@H](c2c(F)ccc(F)c2F)CC1 [Example 22, N-((2R,3S)-1-acetyl-2-(((cis-4-(2,3,6-trifluorophenyl)cyclohexyl)oxy)methyl)piperidin-3-yl)methanesulfonamide] |  |  | 5.3 | 98
CS(=O)(=O)N[C@H]1CCCN(C(=O)C(F)F)[C@H]1CO[C@H]1CC[C@@H](c2ccccc2)CC1 (relative stereo) [Example 139, N-(cis-1-(difluoroacetyl)-2-(((cis-4-phenylcyclohexyl)oxy)methyl)piperidin-3-yl)methanesulfonamide] |  | 103 |  | 
CC(C)[C@H]1CC[C@@H](OC[C@H]2[C@@H](NS(C)(=O)=O)CCCN2C(=O)C2CCC(=O)N2)CC1 (stereo partly drawn) [Example 87, N-(cis-2-(((cis-4-isopropylcyclohexyl)oxy)methyl)-1-(5-oxoprolyl)piperidin-3-yl)methanesulfonamide] |  |  | 4900 | 82
CCNC(=O)N1CCC[C@H](NS(C)(=O)=O)[C@@H]1CO[C@H]1CC[C@@H](c2cnn(C)c2)CC1 (relative stereo) [Example 137, cis-N-ethyl-2-(((cis-4-(1-methyl-1H-pyrazol-4-yl)cyclohexyl)oxy)methyl)-3-((methylsulfonyl)amino)piperidine-1-carboxamide] | 240 | 101 |  | 
CS(=O)(=O)N[C@H]1CCCN(C(=O)C2CC2)[C@H]1COC1CCN(c2ncc(F)cn2)CC1 (relative stereo) [Example 202, N-(cis-1-(cyclopropylcarbonyl)-2-(((1-(5-fluoropyrimidin-2-yl)piperidin-4-yl)oxy)methyl)piperidin-3-yl)methanesulfonamide] | 19 | 97 |  | 
COC(=O)N1CCC[C@H](NS(C)(=O)=O)[C@@H]1CO[C@H]1C[C@@H](c2ccccc2)C1 (relative stereo) [Example 194, methyl cis-3-((methylsulfonyl)amino)-2-(((cis-3-phenylcyclobutyl)oxy)methyl)piperidine-1-carboxylate] |  | 81 |  | 
CC(=O)N1CCC[C@H](NS(C)(=O)=O)[C@@H]1CO[C@H]1CC[C@@H](c2cc(F)cc(F)c2)CC1 [Example 8, N-((2R,3S)-1-acetyl-2-(((cis-4-(3,5-difluorophenyl)cyclohexyl)oxy)methyl)piperidin-3-yl)methanesulfonamide] |  |  | 5.6 | 96
CC(=O)N1CCC[C@H](NS(C)(=O)=O)[C@@H]1CO[C@H]1CC[C@@H](c2ccc(F)c(F)c2)CC1 (relative stereo) [Example 141, N-(cis-1-acetyl-2-(((cis-4-(3,4-difluorophenyl)cyclohexyl)oxy)methyl)piperidin-3-yl)methanesulfonamide] | 460 | 95 |  | 
CCNC(=O)N1CCC[C@H](NS(C)(=O)=O)[C@@H]1CO[C@H]1C[C@H](c2ccccc2)C1 (relative stereo) [Example 130, cis-N-ethyl-3-((methylsulfonyl)amino)-2-(((trans-3-phenylcyclobutyl)oxy)methyl)piperidine-1-carboxamide] | 460 | 96 |  | 
CS(=O)(=O)N[C@H]1CCCN(C(=O)C2CCC(F)(F)CC2)[C@H]1COC1CCN(c2ccccc2F)CC1 (relative stereo) [Example 238, N-(cis-1-((4,4-difluorocyclohexyl)carbonyl)-2-(((1-(2-fluorophenyl)piperidin-4-yl)oxy)methyl)piperidin-3-yl)methanesulfonamide] | 2100 | 91 |  | 
CCNC(=O)N1CCC[C@H](NS(C)(=O)=O)[C@@H]1CO[C@H]1CC[C@@H](c2cccc(F)c2F)CC1 (relative stereo) [Example 136, cis-2-(((cis-4-(2,3-difluorophenyl)cyclohexyl)oxy)methyl)-N-ethyl-3-((methylsulfonyl)amino)piperidine-1-carboxamide] | 0.22 | 102 |  | 
CS(=O)(=O)N[C@H]1CCCN[C@H]1CO[C@H]1CC[C@@H](c2ccccc2F)CC1 [Example 260, N-((2R,3S)-2-(((cis-4-(2-fluorophenyl)cyclohexyl)oxy)methyl)piperidin-3-yl)methanesulfonamide] | 550 | 99 |  | 
CS(=O)(=O)N[C@H]1CCCN(C(=O)C2CCOCC2)[C@H]1CO[C@H]1CC[C@@H](c2ccccc2)CC1 (relative stereo) [Example 121, N-(cis-2-(((cis-4-phenylcyclohexyl)oxy)methyl)-1-(tetrahydro-2H-pyran-4-ylcarbonyl)piperidin-3-yl)methanesulfonamide] | 8.8 | 111 |  | 
CC(=O)N1CCC[C@H](NS(C)(=O)=O)[C@@H]1CO[C@H]1CC[C@@H](c2ccn(C)n2)CC1 (relative stereo) [Example 158, N-(cis-1-acetyl-2-(((cis-4-(1-methyl-1H-pyrazol-3-yl)cyclohexyl)oxy)methyl)piperidin-3-yl)methanesulfonamide] | 1600 | 83 |  | 

The next lines start with the values.

EC50 (FLIPR TETRA, Fluo-4AM) [nM] | Emax (FLIPR TETRA, Fluo-4AM) [%] | EC50 [1] [nM] | Emax at 30 µM [%] | SMILES
5000 | 75 |  |  | CS(=O)(=O)N[C@H]1CCCN[C@H]1COC1CCC(F)(c2cc(F)cc(F)c2)CC1 (relative stereo) [Example 325, N-(cis-2-(((4-(3,5-difluorophenyl)-4-fluorocyclohexyl)oxy)methyl)-piperidin-3-yl)methanesulfonamide]
3300 | 81 |  |  | CCNC(=O)N1CCC[C@H](NS(C)(=O)=O)[C@@H]1CO[C@H]1C[C@H](Oc2ccccc2)C1 (relative stereo) [Example 281, cis-N-ethyl-3-((methylsulfonyl)amino)-2-(((trans-3-phenoxycyclobutyl)oxy)methyl)piperidine-1-carboxamide]
270 | 95 |  |  | CC(OC(=O)N1CCC[C@H](NS(C)(=O)=O)[C@@H]1COC1CCN(c2ncccn2)CC1)C(F)(F)F (relative stereo) [Example 313, 1,1,1-trifluoropropan-2-yl cis-3-((methylsulfonyl)amino)-2-(((1-(pyrimidin-2-yl)piperidin-4-yl)oxy)methyl)piperidine-1-carboxylate]
2200 | 37 |  |  | CC(=O)N1CCC[C@H](NS(C)(=O)=O)[C@@H]1CO[C@H]1CC[C@@H](c2c(C)cccc2C)CC1 (relative stereo) [Example 321, N-(cis-1-acetyl-2-(((cis-4-(2,6-dimethylphenyl)cyclohexyl)oxy)-methyl)piperidin-3-yl)methanesulfonamide]
29 | 106 |  |  | CC(=O)N1CCC[C@H](NS(C)(=O)=O)[C@@H]1CO[C@H]1CC[C@@H](c2ccccc2C)CC1 [Example 319, N-((2R,3S)-1-acetyl-2-(((cis-4-(2-methylphenyl)cyclohexyl)oxy)-methyl)piperidin-3-yl)methanesulfonamide]
13 | 103 |  |  | CC(C)OC(=O)N1CCC[C@H](NS(C)(=O)=O)[C@@H]1CO[C@@H]1CCN(c2ncccn2)C[C@H]1F (relative stereo) [Example 341, isopropyl cis-2-(((trans-3-fluoro-1-(pyrimidin-2-yl)piperidin-4-yl)oxy)methyl)-3-((methylsulfonyl)amino)piperidine-1-carboxylate]
260 | 118 |  |  | COC(=O)N1CCC[C@H](NS(C)(=O)=O)[C@@H]1CO[C@H]1CC[C@@]2(CC1)OCc1ccccc12 [Example 274, methyl cis-3-((methylsulfonyl)amino)-2-(((1r,4′r)-3H-spiro[2-benzofuran-1,1′-cyclohexan]-4′-yloxy)methyl)piperidine-1-carboxylate]
 | 92 |  |  | COC(=O)N1CCC[C@H](NS(C)(=O)=O)[C@@H]1CO[C@H]1CC[C@@H](c2cccc(OC(F)(F)F)c2)CC1 (relative stereo) [Example 298, methyl cis-3-((methylsulfonyl)amino)-2-(((cis-4-(3-(trifluoromethoxy)phenyl)cyclohexyl)oxy)methyl)piperidine-1-carboxylate]
 | 98 |  |  | COC(=O)N1CCC[C@H](NS(C)(=O)=O)[C@@H]1CO[C@H]1CC[C@@](O)(c2ccccc2)CC1 [Example 331, methyl cis-2-(((trans-4-hydroxy-4-phenylcyclohexyl)oxy)methyl)-3-((methylsulfonyl)amino)piperidine-1-carboxylate]
2300 | 94 |  |  | COC(=O)N1CCC[C@H](NS(C)(=O)=O)[C@@H]1CO[C@H]1CC[C@@H](c2ccccc2C#N)CC1 (relative stereo) [Example 265, methyl cis-2-(((cis-4-(2-cyanophenyl)cyclohexyl)oxy)methyl)-3-((methylsulfonyl)amino)piperidine-1-carboxylate]
